Assay results published in ChEMBL document CHEMBL4342467, “Discovery of a Novel Dual-Target Inhibitor of ERK1 and ERK5 That Induces Regulated Cell Death to Overcome Compensatory Mechanism in Specific Tumor Types” (J Med Chem, 2020).

Key:
[1] = biological target: Mitogen-activated protein kinase 3 (Homo sapiens) (UniProt P27361); assay: Inhibition of ERK1 (unknown origin) at 1 uM by Z'-Lyte assay relative to control
[2] = biological target: Mitogen-activated protein kinase 1 (Homo sapiens) (UniProt P28482); assay: Inhibition of ERK2 (unknown origin) at 1 uM by Z'-Lyte assay relative to control
[3] = biological target: Mitogen-activated protein kinase 7 (Homo sapiens) (UniProt Q13164); assay: Inhibition of ERK5 (unknown origin) at 1 uM by Z'-Lyte assay relative to control
HL-60 = assay: Antiproliferative activity against human HL60 cells assessed as reduction in cell viability measured after 24 hrs; format: functional, cell-based; settings: HL-60, 24 h
MKN-74 = assay: Antiproliferative activity against human MKN74 cells assessed as reduction in cell viability measured after 24 hrs; format: functional, cell-based; settings: MKN-74, 24 h
HeLa = assay: Antiproliferative activity against human HeLa cells assessed as reduction in cell viability measured after 24 hrs; format: functional, cell-based

Chain of Mitogen-activated protein kinase 3 (Homo sapiens) (P27361 whole entry): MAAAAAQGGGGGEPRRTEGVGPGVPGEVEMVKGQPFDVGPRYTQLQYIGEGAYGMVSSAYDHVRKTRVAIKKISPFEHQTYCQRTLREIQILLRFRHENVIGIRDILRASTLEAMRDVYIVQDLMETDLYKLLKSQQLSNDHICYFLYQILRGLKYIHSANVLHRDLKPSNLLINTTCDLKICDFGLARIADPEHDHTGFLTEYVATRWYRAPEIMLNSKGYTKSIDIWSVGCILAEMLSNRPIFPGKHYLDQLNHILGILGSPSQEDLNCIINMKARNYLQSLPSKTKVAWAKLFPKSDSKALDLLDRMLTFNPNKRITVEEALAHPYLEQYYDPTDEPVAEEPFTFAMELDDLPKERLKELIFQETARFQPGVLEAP
Chain of Mitogen-activated protein kinase 1 (Homo sapiens) (P28482 whole entry): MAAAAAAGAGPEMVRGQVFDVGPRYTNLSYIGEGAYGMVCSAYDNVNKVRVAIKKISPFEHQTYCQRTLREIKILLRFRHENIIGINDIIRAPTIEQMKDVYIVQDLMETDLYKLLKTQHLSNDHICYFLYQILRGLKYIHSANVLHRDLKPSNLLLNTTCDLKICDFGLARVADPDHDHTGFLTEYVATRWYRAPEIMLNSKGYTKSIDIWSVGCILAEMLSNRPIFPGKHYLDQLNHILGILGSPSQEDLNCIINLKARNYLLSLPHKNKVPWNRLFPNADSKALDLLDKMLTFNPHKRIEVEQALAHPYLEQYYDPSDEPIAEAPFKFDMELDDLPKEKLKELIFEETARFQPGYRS
Chain of Mitogen-activated protein kinase 7 (Homo sapiens) (Q13164 2-816 limits assumed): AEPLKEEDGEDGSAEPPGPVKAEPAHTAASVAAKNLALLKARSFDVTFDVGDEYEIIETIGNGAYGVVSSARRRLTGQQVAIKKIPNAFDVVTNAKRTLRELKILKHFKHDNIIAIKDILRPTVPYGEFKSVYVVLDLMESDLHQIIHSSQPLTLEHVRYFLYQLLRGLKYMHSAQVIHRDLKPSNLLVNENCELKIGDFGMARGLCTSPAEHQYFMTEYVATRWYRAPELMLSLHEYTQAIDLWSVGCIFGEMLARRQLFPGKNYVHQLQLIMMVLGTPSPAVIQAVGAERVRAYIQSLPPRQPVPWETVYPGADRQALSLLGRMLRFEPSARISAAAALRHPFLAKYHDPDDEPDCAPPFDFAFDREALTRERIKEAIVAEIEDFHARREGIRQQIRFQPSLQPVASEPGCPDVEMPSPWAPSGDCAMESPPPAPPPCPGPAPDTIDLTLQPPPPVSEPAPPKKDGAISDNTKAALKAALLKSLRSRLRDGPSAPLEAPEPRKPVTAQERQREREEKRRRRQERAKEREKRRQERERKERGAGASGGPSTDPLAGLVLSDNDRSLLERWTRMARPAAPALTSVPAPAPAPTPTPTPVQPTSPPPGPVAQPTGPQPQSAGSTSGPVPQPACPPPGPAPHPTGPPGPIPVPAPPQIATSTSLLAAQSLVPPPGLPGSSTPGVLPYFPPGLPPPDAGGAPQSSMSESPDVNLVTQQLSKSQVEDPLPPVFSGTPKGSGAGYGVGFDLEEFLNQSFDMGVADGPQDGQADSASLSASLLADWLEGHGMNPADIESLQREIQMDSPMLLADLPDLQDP

| Compound | inhibition [1] [%] | inhibition [2] [%] | inhibition [3] [%] | IC50 (HL-60) [µM] | IC50 (MKN-74) [µM] | IC50 (HeLa) [µM] |
| --- | --- | --- | --- | --- | --- | --- |
| NC(=O)c1c(NC(=O)c2ccccc2Cl)sc2c1CCN(C(=O)Nc1cc(C(F)(F)F)cc(C(F)(F)F)c1)C2 | 91 | 89.2 | 80.3 | 26.7 | 24.3 | 38.6 |
| NC(=O)c1c(NC(=O)c2ccncn2)sc2c1CCN(C(=S)Nc1ccccc1Cl)C2 | 48.5 | 45.7 | 38.5 | 34.6 | 28.4 | > 50 |
| Cc1ccccc1C(=O)Nc1sc2c(c1C(N)=O)CCN(C(=S)Nc1ccccc1Cl)C2 | 70.6 | 65.9 | 53 | 20.9 | 11 | 35.3 |
| NC(=O)c1c(NC(=O)c2ccccc2Cl)sc2c1CCN(Cc1ccccc1F)C2 | 68.3 | 71.6 | 37.9 | 21.8 | 12.9 | > 50 |
| NC(=O)c1c(NC(=O)c2ccccc2Cl)sc2c1CCN(Cc1ccc(Cl)cc1)C2 | 47.4 | 55.4 | 47 | 22.5 | 18.7 | > 50 |
| NC(=O)c1c(NC(=O)c2ccc(C(F)(F)F)cc2)sc2c1CCN(C(=O)Nc1ccccc1Cl)C2 | 78.3 | 77.6 | 62.2 | > 50 | 43.9 | > 50 |
| NC(=O)c1c(NC(=O)c2ccccc2Cl)sc2c1CCN(Cc1ccc(Cl)cc1Cl)C2 | 68.9 | 66.6 | 63.1 | 8.01 | 16.3 | 21.1 |
| NC(=O)c1c(NC(=O)c2ccccc2Cl)sc2c1CCN(C(=S)Nc1cc(C(F)(F)F)cc(C(F)(F)F)c1)C2 | 89.3 | 88.8 | 77.4 | 6.5 | 15 | 48.9 |
| Cc1ccccc1NC(=S)N1CCc2c(sc(NC(=O)c3ccccc3C)c2C(N)=O)C1 | 48.3 | 43 | 37.1 | > 50 | > 50 | > 50 |
| NC(=O)c1c(NC(=O)c2ccccc2Cl)sc2c1CCN(C(=S)Nc1ccccc1F)C2 | 88.4 | 82.8 | 70.7 | 4.97 | 12.6 | 28.7 |
| NC(=O)c1c(NC(=O)c2ccccc2F)sc2c1CCN(Cc1c(Cl)cccc1Cl)C2 | 48.4 | 36.9 | 21.1 | 10.3 | 7.43 | 33 |
| NC(=O)c1c(NC(=O)c2ccc(C(F)(F)F)cc2)sc2c1CCN(Cc1ccc(Cl)cc1)C2 | 47.8 | 43.3 | 61.1 | > 50 | > 50 | > 50 |
| NC(=O)c1c(NC(=O)c2ccccc2Cl)sc2c1CCN(C(=S)Nc1c(Cl)cccc1Cl)C2 | 90.7 | 90.5 | 88 | 3.95 | 4.02 | 26.5 |
| NC(=O)c1c(NC(=O)c2ccccc2Cl)sc2c1CCN(C(=O)Nc1ccccc1Cl)C2 | 89.2 | 88.4 | 89.9 | 12.5 | 16.3 | 45.4 |
| NC(=O)c1c(NC(=O)c2ccccc2Cl)sc2c1CCN(Cc1cc(Cl)cc(Cl)c1)C2 | 61 | 59.9 | 22.9 | 15.8 | 23.7 | 19.6 |
| NC(=O)c1c(NC(=O)c2cccc([N+](=O)[O-])c2)sc2c1CCN(C(=O)Nc1ccccc1Cl)C2 | 71.3 | 60.4 | 65.7 | 18.5 | 22.7 | > 50 |
| NC(=O)c1c(NC(=O)c2ccccc2F)sc2c1CCN(Cc1ccc(Cl)cc1Cl)C2 | 55.7 | 32.4 | 38 | 13.1 | 9.61 | 27.5 |
| NC(=O)c1c(NC(=O)c2cccc([N+](=O)[O-])c2)sc2c1CCN(C(=S)Nc1cc(C(F)(F)F)cc(C(F)(F)F)c1)C2 | 80.2 | 75 | 82.9 | 16.4 | 25.8 | 27.2 |
| Cc1ccc(C(=O)Nc2sc3c(c2C(N)=O)CCN(C(=O)Nc2ccccc2Cl)C3)cc1 | 70.4 | 71.9 | 53.8 | 14.6 | 27.6 | 32.9 |

Results, then the compound that gave them:

| inhibition [1] [%] | inhibition [2] [%] | inhibition [3] [%] | IC50 (HL-60) [µM] | IC50 (MKN-74) [µM] | IC50 (HeLa) [µM] | Compound |
| --- | --- | --- | --- | --- | --- | --- |
| 88 | 87.3 | 81 | 4.43 | 2.63 | 28.9 | NC(=O)c1c(NC(=O)c2ccccc2Cl)sc2c1CCN(C(=S)Nc1ccccc1I)C2 |
| 80.9 | 82.1 | 88.4 | 17.6 | 13.7 | 24.7 | NC(=O)c1c(NC(=O)c2ccccc2Br)sc2c1CCN(C(=S)Nc1ccccc1Br)C2 |
| 83.5 | 85.8 | 80.4 | 8.56 | 17.5 | > 50 | NC(=O)c1c(NC(=O)c2ccccc2I)sc2c1CCN(C(=S)Nc1ccccc1Cl)C2 |
| 74.4 | 79.7 | 48.6 | > 50 | > 50 | 47.4 | NC(=O)c1c(NC(=O)c2ccc[nH]2)sc2c1CCN(C(=S)Nc1cccnc1)C2 |
| 83.6 | 85.7 | 76.6 | 10.6 | 1.87 | 26.7 | NC(=O)c1c(NC(=O)c2ccccc2Cl)sc2c1CCN(C(=S)Nc1ccccc1C(F)(F)F)C2 |
| 72 | 76.9 | 60.1 | 23.2 | 17.4 | > 50 | Cc1ccccc1C(=O)Nc1sc2c(c1C(N)=O)CCN(C(=S)Nc1ccccc1C(F)(F)F)C2 |
| 55.8 | 42.1 | 44.3 | 10.4 | 9.5 | > 50 | N#Cc1ccccc1CN1CCc2c(sc(NC(=O)c3ccccc3Cl)c2C(N)=O)C1 |
| 73.8 | 77.5 | 58.9 | 13.8 | 11.8 | > 50 | NC(=O)c1c(NC(=O)c2ccccc2)sc2c1CCN(C(=S)Nc1ccccc1Cl)C2 |
| 39.6 | 33.2 | 40 | 14.8 | 10.8 | > 50 | NC(=O)c1c(NC(=O)c2ccc(C(F)(F)F)cc2)sc2c1CCN(Cc1ccc(Cl)cc1Cl)C2 |
| 83.2 | 82.8 | 50.4 | 8.43 | 11.3 | 26.2 | Cc1ccc(C(=O)Nc2sc3c(c2C(N)=O)CCN(C(=S)Nc2ccccc2Cl)C3)cc1 |
| 77.5 | 80.7 | 64.8 | 19.7 | 14.2 | 49.2 | NC(=O)c1c(NC(=O)c2ccccc2I)sc2c1CCN(C(=S)Nc1ccccc1C(F)(F)F)C2 |
| 62.4 | 68.6 | 65.2 | 12.5 | 11.1 | 19.4 | NC(=O)c1c(NC(=O)c2ccccc2F)sc2c1CCN(C(=S)Nc1ccccc1Cl)C2 |
| 68.4 | 72.8 | 59.3 | 22.6 | 11.7 | > 50 | Cc1ccccc1NC(=S)N1CCc2c(sc(NC(=O)c3ccccc3Cl)c2C(N)=O)C1 |
| 60.9 | 64.7 | 40.5 | 34.4 | 25.8 | 24.9 | NC(=O)c1c(NC(=O)c2ccccc2Cl)sc2c1CCN(C(=S)Nc1ccccc1-c1ccccc1)C2 |
| 37.3 | 35.6 | 38.7 | 10.6 | 8.53 | > 50 | NC(=O)c1c(NC(=O)c2ccc(C(F)(F)F)cc2)sc2c1CCN(Cc1c(Cl)cccc1Cl)C2 |
| 82.5 | 79.7 | 57.9 | 5.52 | 12.2 | > 50 | NC(=O)c1c(NC(=O)c2ccc(C(F)(F)F)cc2)sc2c1CCN(C(=S)Nc1ccc(C(F)(F)F)cc1)C2 |
| 64.7 | 65.2 | 54.9 | 45.2 | > 50 | > 50 | Cc1ccccc1C(=O)Nc1sc2c(c1C(N)=O)CCN(C(=S)Nc1ccccc1Br)C2 |
| 42.8 | 45.4 | 46 | 10 | 12.3 | 47.4 | Cc1ccc(C(=O)Nc2sc3c(c2C(N)=O)CCN(Cc2c(Cl)cccc2Cl)C3)cc1 |
| 66.3 | 67.1 | 53.5 | 20.8 | 20.5 | > 50 | COc1ccccc1C(=O)Nc1sc2c(c1C(N)=O)CCN(C(=S)Nc1ccccc1Cl)C2 |
| 78.8 | 80.9 | 56.5 | 17.6 | 21.9 | 46.9 | NC(=O)c1c(NC(=O)c2ccccc2C(F)(F)F)sc2c1CCN(C(=S)Nc1ccccc1Cl)C2 |
